In patent KR20130087877A, “피부미백, 항산화 및 ppar 활성을 갖는 신규 화합물 및 이의 의학적 용도” (부산대학교 산학협력단, priority 2012, dated 2013):

Tests used:
[1] = system: ROS generated in vascular endothelial cells (혈관내피세포(YPEN-1)); assay: In vitro ROS scavenging activity, DCFDA assay in YPEN-1 vascular endothelial cells; type: cell-based, rat; details: YPEN-1 cells, SIN-1 50 μM pretreatment 1 h, compared with positive control Trolox, Figure 1
[2] = target: T1, PPARα (Homo sapiens, UniProt Q07869); assay: PPAR analysis, PPARα (Fluormone Pan-PPAR Green competition, competitive activation rate); details: final sample concentration 100 μM; compared with positive control fenofibrate; Figure 3
T1 sequence (Q07869 239-466 limits assumed): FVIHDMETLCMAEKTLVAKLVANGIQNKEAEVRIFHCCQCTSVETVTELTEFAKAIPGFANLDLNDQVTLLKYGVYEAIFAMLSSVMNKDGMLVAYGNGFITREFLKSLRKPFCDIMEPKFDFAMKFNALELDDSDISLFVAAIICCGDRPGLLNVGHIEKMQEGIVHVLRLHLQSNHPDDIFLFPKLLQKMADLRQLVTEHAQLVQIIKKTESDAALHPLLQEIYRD

[3] = system: mushroom-derived tyrosinase (버섯 유래 티로시나아제); assay: Tyrosinase inhibition (dopachrome formation from L-tyrosine); type: biochemical; details: 1 mM L-tyrosine, pH 6.5, 25℃, 30 min, 492 nm; compared with positive control kojic acid; Figure 2
[4] = target: T2, PPARγ (Homo sapiens, UniProt P37231); assay: PPAR analysis, PPARγ (Fluormone Pan-PPAR Green competition, competitive activation rate); type: binding; details: final sample concentration 100 μM; compared with positive control rosiglitazone; Figure 4
T2 sequence (P37231 238-503 limits assumed): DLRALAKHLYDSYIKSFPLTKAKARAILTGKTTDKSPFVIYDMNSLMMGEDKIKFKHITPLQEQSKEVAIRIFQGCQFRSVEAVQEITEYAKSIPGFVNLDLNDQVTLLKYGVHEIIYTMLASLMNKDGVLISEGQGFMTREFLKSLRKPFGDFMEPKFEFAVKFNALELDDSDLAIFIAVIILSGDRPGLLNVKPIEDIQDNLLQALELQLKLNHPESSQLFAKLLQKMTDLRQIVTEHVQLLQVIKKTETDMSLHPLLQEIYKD

[5] = system: PPARα and PPARγ (PPARα 및 PPARγ); assay: PPAR analysis, PPARα and PPARγ taken together; type: binding; details: final sample concentration 100 μM

| PPARα activation (competitive activation rate), in words [2] | SMILES | ROS scavenging effect [1] | also measured |
| --- | --- | --- | --- |
| – | COc1cc(/C=C(\NC(C)=O)C(=O)O)cc(OC)c1O [화합물 25, (Z)-2-Acetamido-3-(4-hydroxy-3,5-dimethoxyphenyl)acrylic acid] | 양성대조군인 트롤록스(Trolox)만큼 소거하는 효과가 큰 | – |
| 양성대조군인 페노피브레이트보다 매우 뛰어난 PPARα 활성화제 | NC(=O)N/N=C/c1ccccc1O [화합물 10, (E)-2-(2-Hydroxybenzylidene)hydrazinecarboxamide] | – | – |
| – | NC(=O)N/N=C/c1ccc(O)cc1 [화합물 1, (E)-2-(4-Hydroxybenzylidene)hydrazinecarboxamide] | – | tyrosinase inhibitory activity [3]: 양성대조군인 코지산(Kojic Acid)과 유사한 티로시네이즈 억제 활성 |
| – | CC(=O)N/C(=C\c1ccc(O)c(O)c1)C(=O)O [화합물 14, (Z)-2-Acetamido-3-(3,4-dihydroxyphenyl)acrylic acid] | 양성대조군인 트롤록스(Trolox)만큼 소거하는 효과가 큰 | – |
| 양성대조군인 페노피브레이트보다 매우 뛰어난 PPARα 활성화제 | CC(=O)N/C(=C\c1ccc(O)cc1O)C(=O)O [화합물 15, (Z)-2-Acetamido-3-(2,4-dihydroxyphenyl)acrylic acid] | – | PPARγ activation (competitive activation rate), in words [4]: 양성대조군인 로지글리타존보다 뛰어난 PPARγ 활성화제; simultaneous activation of PPARα and PPARγ [5]: PPARα 및 PPARγ를 동시에 활성화할 수 있는 활성화제 |
| – | NC(=O)N/N=C/c1ccc(O)c(O)c1 [화합물 2, (E)-2-(3,4-Dihydroxybenzylidene)hydrazinecarboxamide] | 양성대조군인 트롤록스(Trolox)만큼 소거하는 효과가 큰 | – |
| – | COc1cc(/C=C(\NC(C)=O)C(=O)O)ccc1O [화합물 16, (Z)-2-Acetamido-3-(4-hydroxy-3-methoxyphenyl)acrylic acid] | 양성대조군인 트롤록스(Trolox)만큼 소거하는 효과가 큰 | – |
| – | CCOc1cc(/C=C(\NC(C)=O)C(=O)O)ccc1O [화합물 17, (Z)-2-Acetamido-3-(3-ethoxy-4-hydroxyphenyl)acrylic acid] | 양성대조군인 트롤록스(Trolox)만큼 소거하는 효과가 큰 | – |
| 양성대조군인 페노피브레이트보다 매우 뛰어난 PPARα 활성화제 | CC(=O)N/C(=C\c1ccccc1O)C(=O)O [화합물 23, (Z)-2-Acetamido-3-(2-hydroxyphenyl)acrylic acid] | – | PPARγ activation (competitive activation rate), in words [4]: 양성대조군인 로지글리타존보다 뛰어난 PPARγ 활성화제; simultaneous activation of PPARα and PPARγ [5]: PPARα 및 PPARγ를 동시에 활성화할 수 있는 활성화제 |
